Measurements reported in patent publication US20250297028A1, “TREATMENT OF RENAL CANCER USING A COMBINATION OF AN ANTI-PD-1 ANTIBODY AND ANOTHER ANTI-CANCER AGENT” (BRISTOL-MYERS SQUIBB COMPANY, priority 2014, published 2025).
Read-outs that look alike come from different tables or passages of the source.

What was measured:
[1] = test system: renal cell carcinoma (RCC); settings: cited from earlier work; for OS (overall survival): phase 3, poor-risk patients with advanced RCC (Hudes et al., 2007)
[2] = test system: tumor-infiltrating immune cells in Renca tumors; experiment: Immune cell infiltration of Renca tumors (immunohistochemistry, flow cytometry); format: in vivo, mouse; settings: versus control group
Method: Immunohistochemistry and flow cytometry analyses were used to assess immune cell infiltration of tumors.
Frozen sections were fixed in an acetone/methanol mix and rinsed in phosphate-buffered saline (PBS). Sections were blocked for endogenous peroxidase and the primary antibodies (anti-CD8, anti-CD4, anti-FoxP3, and anti-PD-L1) were added and incubated overnight. Chromogenic development was done using a brown polymer-based detection system (Biocare Medical), with hematoxylin used as a blue counter stain for visualization of cellular nuclei.
Tumor-infiltrating immune cells were isolated and prepared as a single-cell suspension, then stained and analyzed via flow cytometry for expression of T-cell subsets (regulatory and activated) and myeloid cells (i.e., for expression of CD3, CD4, CD8, FoxP3, CD25, and CD69).

[3] = test system: murine renal carcinoma (Renca) tumor; experiment: Efficacy study in Renca murine RCC tumor model; format: in vivo, mouse; settings: for % TGI (tumor growth inhibition) / Objective Responses (ORs): 33 days after implantation; for % TGI (tumor growth inhibition): sunitinib 120 mg/kg QD×14 PO, sorafenib 200 mg/kg QD×14 PO, 4H2 10 mg/kg Q4D×4 IP; for Objective Responses (ORs): responders/8 mice
Description: Female 8-12 weeks old Balb/c and C57/BL6 mice (Harlan Laboratories, Federick, MD) were used in all studies. Mice were housed in sterile microisolator cages and administered sterile food and water ad libitum, unless otherwise specified.
The murine renal carcinoma (Renca) and murine colon adenocarcinoma (CT-26) tumor cell lines were maintained in vitro for less than 10 passages.
Tumor cells were implanted subcutaneously (SC). When the mean tumor volume reached about 100 mm^3, mice were randomized into groups of 8 animals. Vehicle (control), sunitinib (120 mg/kg) or sorafenib (200 mg/kg) was orally administered once daily for 14 days (QD×14, PO). MAb 4H2 was administered at 10 mg/kg every 4 days for a total of 4 treatments (Q4D×4) intraperitoneally (IP). Tumors were measured twice weekly, and the tumor volume was calculated as length×(width^2/2).

PD-1 = target: T1, PD-1 (Homo sapiens, UniProt Q15116); settings: 15 subjects, 0.3 to 10 mg/kg, across all doses; cited from earlier work
T1 construct: indicate that PD-1 occupancy appears to be dose-independent in this dose range; endogenous in cells
T1 sequence (Q15116 25-288): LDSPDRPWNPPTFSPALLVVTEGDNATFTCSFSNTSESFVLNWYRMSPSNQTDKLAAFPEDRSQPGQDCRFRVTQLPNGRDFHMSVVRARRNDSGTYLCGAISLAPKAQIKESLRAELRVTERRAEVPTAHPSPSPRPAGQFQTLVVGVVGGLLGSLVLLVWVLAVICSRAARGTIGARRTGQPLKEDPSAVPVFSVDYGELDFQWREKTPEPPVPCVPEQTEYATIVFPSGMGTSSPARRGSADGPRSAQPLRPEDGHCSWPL

[4] = dosing up to 10 mg/kg every two weeks; cited from earlier work

For `CO[C@H]1C[C@@H]2CC[C@@H](C)[C@@](O)(O2)C(=O)C(=O)N2CCCC[C@H]2C(=O)O[C@H]([C@H](C)C[C@@H]2CC[C@@H](OCCO)[C@H](OC)C2)CC(=O)[C@H](C)/C=C(\C)[C@@H](O)[C@@H](OC)C(=O)[C@H](C)C[C@H](C)/C=C/C=C/C=C/1C` [Everolimus], the “improvement in median progression-free survival (PFS) versus placebo” value ([1]; Motzer et al., 2008) is listed as 2.1 month and the OS improvement ([1]; versus placebo (Motzer et al., 2008)) is listed as “no OS improvement”.

With `CNC(=O)c1cc(Oc2ccc(NC(=O)Nc3ccc(Cl)c(C(F)(F)F)c3)cc2)ccn1` [Sorafenib] the “infiltration of CD4+ and CD8+ T cells into tumor (IHC)” value [2] was “increased T-cell infiltration into the tumor was not observed”, the “% TGI (tumor growth inhibition)” value [3] was 62% and the “activity as monotherapy in Renca model” value ([3]; monotherapy) was “active”. The “Objective Responses (ORs)” value [3] was 0/8 and the response rate ([1]; randomized Phase 2, 128 treatment-naïve mRCC subjects (Procopio et al., 2011)) was 15%.

In the case of `CCN(CC)CCNC(=O)c1c(C)[nH]c(/C=C2\C(=O)Nc3ccc(F)cc32)c1C` [Sunitinib], the “% TGI (tumor growth inhibition)” value [3] is reported as 85% and the “Objective Responses (ORs)” value [3] is reported as 0/8.

For `CO[C@H]1C[C@@H]2CC[C@@H](C)[C@@](O)(O2)C(=O)C(=O)N2CCCC[C@H]2C(=O)O[C@H]([C@H](C)C[C@@H]2CC[C@@H](OC(=O)C(C)(CO)CO)[C@H](OC)C2)CC(=O)[C@H](C)/C=C(\C)[C@@H](O)[C@@H](OC)C(=O)[C@H](C)C[C@H](C)/C=C/C=C/C=C/1C` [temsirolimus], the “OS (overall survival)” value [1] is given as 10.9 months.

For IFNα, the “OS (overall survival)” value [1] is listed as 7.3 months.

For “ipilimumab: fully human, IgG1 monoclonal Ab that blocks the binding of CTLA-4 to its B7 ligands”, the ORR ([1]; Phase 2 metastatic RCC, cohort A: 3 mg/kg loading dose then 1 mg/kg every 3 wk (Yang et al., 2007)) is given as 5% and the ORR ([1]; Phase 2 metastatic RCC, cohort B: 3 mg/kg every 3 wk for all doses (Yang et al., 2007)) is given as 12.5%.

For nivolumab, the “mean PD-1 occupancy rate” value (PD-1) is given as 85%, the “mean plateau PD-1 occupancy” value (PD-1) is given as 72% and the ORR ([1]; 0.3 mg/kg, Phase 2 metastatic RCC (Motzer et al., 2014)) is given as 20%. For the same compound, the ORR ([1]; 0.3 mg/kg, pretreated with 1-3 prior anti-angiogenic therapies (Choueiri et al., 2014)) was 9%, the ORR ([1]; 2 mg/kg, Phase 2 metastatic RCC (Motzer et al., 2014)) was 22% and the ORR ([1]; 2 mg/kg, pretreated with 1-3 prior anti-angiogenic therapies (Choueiri et al., 2014)) was 23%. For the same compound, the ORR ([1]; 10 mg/kg, Phase 2 metastatic RCC (Motzer et al., 2014)) was 20%, the ORR ([1]; 10 mg/kg, pretreated with 1-3 prior anti-angiogenic therapies (Choueiri et al., 2014)) was 22% and the ORR ([1]; 10 mg/kg, treatment-naïve patients (Choueiri et al., 2014)) was 13%. The ORR ([1]; nivolumab 1 or 10 mg/kg alone, RCC, Phase 1 (WO 2013/173223)) was 28-31% and the “maximum tolerated dose (MTD), monotherapy” value [4] was “without reaching the maximum tolerated does (MTD)”.
